Data from patent US20150141336A1, “Pancreatic Peptide Compounds and Use” (Novo Nordisk A/S, priority 2012, published 2015).
Numbered stars: 1 amine (or outer) side, 2 acyl side, 3 side chain; on linkers, the order of the positions; unused ones are H or OH. Side chains are listed from the residue outwards. Peptide text beside a SMILES is read from it. * marks the point of attachment. C18 diacid = O=C(O)CCCCCCCCCCCCCCCCC(=O)*; γGlu = O=C(O)[C@H](CCC(=O)[*:2])N[*:1]; AEEA = NCCOCCOCC(=O)O

Test: Assay (II) PK i.v. minipig, in vivo half-life
Parameters: species or system Göttingen mini-pigs
Details: male, Göttingen, minipig, iv; for half-life: Half-life minipig, Assay (II)
Outline: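 Male Göttingen mini-pigs (18–22 kg, n=5) received 6 nmol/kg i.v. via central catheter, formulated in 50 mM K2HPO4, 0.05% tween 80, pH 8.0. EDTA plasma sampled pre-dose to 240 h, quantified by TFC/LC/MS/MS (MRM, range 1-2000 nmol/l); half-life from non-compartmental analysis per animal.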

Half-life minipig, Assay (II) | half-life | SMILES
40 h | 44 h | CC[C@H](C)[C@H](NC(=O)[C@H](Cc1ccc(O)cc1)NC(=O)[C@H](CCCNC(=N)N)NC(=O)[C@H](CCCNC(=N)N)NC(=O)[C@H](CC(C)C)NC(=O)[C@H](CC(=O)O)NC(=O)[C@H](C)NC(=O)[C@H](C)NC(=O)[C@H](Cc1ccc(O)cc1)NC(=O)[C@H](CCC(N)=O)NC(=O)[C@H](C)NC(=O)[C@H](CCSC)NC(=O)[C@H](CCCCNC(=O)COCCOCCNC(=O)COCCOCCNC(=O)CC[C@H](NC(=O)CCCCCCCCCCCCCCCCC(=O)O)C(=O)O)NC(=O)[C@H](CCC(=O)O)NC(=O)[C@@H]1CCCN1C(=O)[C@@H](NC(=O)[C@H](C)NC(=O)[C@H](CC(N)=O)NC(=O)[C@H](CC(=O)O)NC(=O)CNC(=O)[C@@H]1CCCN1C(=O)[C@H](Cc1ccc(O)cc1)NC(=O)[C@@H](NC(=O)[C@@H]1CCCN1C(=O)[C@H](CCC(=O)O)NC(=O)[C@H](CC(C)C)NC(=O)[C@@H]1CCCN1)C(C)C)[C@@H](C)O)C(=O)N[C@@H](CC(N)=O)C(=O)N[C@@H](CCSC)C(=O)N[C@@H](CC(C)C)C(=O)N[C@H](C(=O)N[C@@H](CCCNC(=N)N)C(=O)N1CCC[C@H]1C(=O)N[C@@H](CCCNC(=N)N)C(=O)N[C@@H](Cc1ccc(O)cc1)C(N)=O)[C@@H](C)O [Compound R] (H-PLEPVYPGDNATPEK([AEEA-AEEA-γGlu-C18 diacid])MAQYAADLRRYINMLTRPRY-NH2; N-terminus and C-terminus assumed)
 | 29 h | CC[C@H](C)[C@H](NC(=O)[C@H](Cc1ccc(O)cc1)NC(=O)[C@H](CCCNC(=N)N)NC(=O)[C@H](CCCNC(=N)N)NC(=O)[C@H](CC(C)C)NC(=O)[C@H](CC(=O)O)NC(=O)[C@H](C)NC(=O)[C@H](C)NC(=O)[C@H](Cc1ccc(O)cc1)NC(=O)[C@H](CCC(N)=O)NC(=O)[C@H](C)NC(=O)[C@H](CCSC)NC(=O)[C@H](CCC(N)=O)NC(=O)[C@H](CCC(=O)O)NC(=O)[C@@H]1CCCN1C(=O)[C@@H](NC(=O)[C@H](C)NC(=O)[C@H](CC(N)=O)NC(=O)[C@H](CC(=O)O)NC(=O)CNC(=O)[C@@H]1CCCN1C(=O)[C@H](Cc1ccc(O)cc1)NC(=O)[C@H](CCCCNC(=O)COCCOCCNC(=O)COCCOCCNC(=O)CC[C@H](NC(=O)CCCCCCCCCCCCCCCCC(=O)O)C(=O)O)NC(=O)[C@@H]1CCCN1C(=O)[C@H](CCC(=O)O)NC(=O)[C@@H](N)CC(C)C)[C@@H](C)O)C(=O)N[C@@H](CC(N)=O)C(=O)N[C@@H](CCSC)C(=O)N[C@@H](CC(C)C)C(=O)N[C@H](C(=O)N[C@@H](CCCNC(=N)N)C(=O)N1CCC[C@H]1C(=O)N[C@@H](CCCNC(=N)N)C(=O)N[C@@H](Cc1ccc(O)cc1)C(N)=O)[C@@H](C)O [Compound BJ]
 | 47 h | CC[C@H](C)[C@H](NC(=O)[C@H](Cc1ccc(O)cc1)NC(=O)[C@H](CCCNC(=N)N)NC(=O)[C@H](CCCNC(=N)N)NC(=O)[C@H](CC(C)C)NC(=O)[C@H](CC(=O)O)NC(=O)[C@H](C)NC(=O)[C@H](C)NC(=O)[C@H](Cc1ccc(O)cc1)NC(=O)[C@H](CCC(N)=O)NC(=O)[C@H](C)NC(=O)[C@H](CCSC)NC(=O)[C@H](CCC(N)=O)NC(=O)[C@H](CCC(=O)O)NC(=O)[C@@H]1CCCN1C(=O)[C@@H](NC(=O)[C@H](C)NC(=O)[C@H](CC(N)=O)NC(=O)[C@H](CCCCNC(=O)COCCOCCNC(=O)COCCOCCNC(=O)CC[C@H](NC(=O)CCCCCCCCCCCCCCCCC(=O)O)C(=O)O)NC(=O)CNC(=O)[C@@H]1CCCN1C(=O)[C@H](Cc1ccc(O)cc1)NC(=O)[C@@H](NC(=O)[C@@H]1CCCN1C(=O)[C@H](CCC(=O)O)NC(=O)[C@H](CC(C)C)NC(=O)[C@@H]1CCCN1)C(C)C)[C@@H](C)O)C(=O)N[C@@H](CC(N)=O)C(=O)N[C@@H](CCSC)C(=O)N[C@@H](CC(C)C)C(=O)N[C@H](C(=O)N[C@@H](CCCNC(=N)N)C(=O)N1CCC[C@H]1C(=O)N[C@@H](CCCNC(=N)N)C(=O)N[C@@H](Cc1ccc(O)cc1)C(N)=O)[C@@H](C)O [Compound X]
 | 54 h | CC[C@H](C)[C@H](NC(=O)[C@H](Cc1ccc(O)cc1)NC(=O)[C@H](CCCNC(=N)N)NC(=O)[C@H](CCCNC(=N)N)NC(=O)[C@H](CC(C)C)NC(=O)[C@H](CC(=O)O)NC(=O)[C@H](C)NC(=O)[C@H](C)NC(=O)[C@H](Cc1ccc(O)cc1)NC(=O)[C@H](CCC(N)=O)NC(=O)[C@H](C)NC(=O)[C@H](CCSC)NC(=O)[C@H](CCC(N)=O)NC(=O)[C@H](CCC(=O)O)NC(=O)[C@@H]1CCCN1C(=O)[C@@H](NC(=O)[C@H](C)NC(=O)[C@H](CC(N)=O)NC(=O)[C@H](CC(=O)O)NC(=O)CNC(=O)[C@@H]1CCCN1C(=O)[C@H](Cc1ccc(O)cc1)NC(=O)[C@@H](NC(=O)[C@H](CCCCNC(=O)COCCOCCNC(=O)COCCOCCNC(=O)CC[C@H](NC(=O)CCCCCCCCCCCCCCCCC(=O)O)C(=O)O)NC(=O)[C@H](CCC(=O)O)NC(=O)[C@@H](N)CC(C)C)C(C)C)[C@@H](C)O)C(=O)N[C@@H](CC(N)=O)C(=O)N[C@@H](CCSC)C(=O)N[C@@H](CC(C)C)C(=O)N[C@H](C(=O)N[C@@H](CCCNC(=N)N)C(=O)N1CCC[C@H]1C(=O)N[C@@H](CCCNC(=N)N)C(=O)N[C@@H](Cc1ccc(O)cc1)C(N)=O)[C@@H](C)O [Compound BK]
 | 36 h | CC[C@H](C)[C@H](NC(=O)[C@H](Cc1ccc(O)cc1)NC(=O)[C@H](CCCNC(=N)N)NC(=O)[C@H](CCCNC(=N)N)NC(=O)[C@H](CC(C)C)NC(=O)[C@H](CC(=O)O)NC(=O)[C@H](C)NC(=O)[C@H](C)NC(=O)[C@H](Cc1ccc(O)cc1)NC(=O)[C@H](CCC(N)=O)NC(=O)[C@H](C)NC(=O)[C@H](CCSC)NC(=O)[C@H](CCC(N)=O)NC(=O)[C@H](CCC(=O)O)NC(=O)[C@@H]1CCCN1C(=O)[C@@H](NC(=O)[C@H](CCCCNC(=O)COCCOCCNC(=O)COCCOCCNC(=O)CC[C@H](NC(=O)CCCCCCCCCCCCCCCCC(=O)O)C(=O)O)NC(=O)[C@H](CC(N)=O)NC(=O)[C@H](CC(=O)O)NC(=O)CNC(=O)[C@@H]1CCCN1C(=O)[C@H](Cc1ccc(O)cc1)NC(=O)[C@@H](NC(=O)[C@@H]1CCCN1C(=O)[C@H](CCC(=O)O)NC(=O)[C@H](CC(C)C)NC(=O)[C@@H]1CCCN1)C(C)C)[C@@H](C)O)C(=O)N[C@@H](CC(N)=O)C(=O)N[C@@H](CCSC)C(=O)N[C@@H](CC(C)C)C(=O)N[C@H](C(=O)N[C@@H](CCCNC(=N)N)C(=O)N1CCC[C@H]1C(=O)N[C@@H](CCCNC(=N)N)C(=O)N[C@@H](Cc1ccc(O)cc1)C(N)=O)[C@@H](C)O [Compound V]

The remaining lines, values behind:

SMILES | Half-life minipig, Assay (II) | half-life
CC[C@H](C)[C@H](NC(=O)[C@H](Cc1ccc(O)cc1)NC(=O)[C@H](CCCNC(=N)N)NC(=O)[C@H](CCCNC(=N)N)NC(=O)[C@H](CC(C)C)NC(=O)[C@H](CC(=O)O)NC(=O)[C@H](C)NC(=O)[C@H](C)NC(=O)[C@H](Cc1ccc(O)cc1)NC(=O)[C@H](CCC(N)=O)NC(=O)[C@H](C)NC(=O)[C@H](CCSC)NC(=O)[C@H](CCC(N)=O)NC(=O)[C@H](CCC(=O)O)NC(=O)[C@@H]1CCCN1C(=O)[C@@H](NC(=O)[C@H](C)NC(=O)[C@H](CC(N)=O)NC(=O)[C@H](CC(=O)O)NC(=O)CNC(=O)[C@@H]1CCCN1C(=O)[C@H](Cc1ccc(O)cc1)NC(=O)[C@@H](NC(=O)[C@@H]1CCCN1C(=O)[C@H](CCC(=O)O)NC(=O)[C@H](CC(C)C)NC(=O)[C@@H]1CCCN1C(=O)COCCOCCNC(=O)COCCOCCNC(=O)CC[C@H](NC(=O)CCCCCCCCCCCCCCCCC(=O)O)C(=O)O)C(C)C)[C@@H](C)O)C(=O)N[C@@H](CC(N)=O)C(=O)N[C@@H](CCSC)C(=O)N[C@@H](CC(C)C)C(=O)N[C@H](C(=O)N[C@@H](CCCNC(=N)N)C(=O)N1CCC[C@H]1C(=O)N[C@@H](CCCNC(=N)N)C(=O)N[C@@H](Cc1ccc(O)cc1)C(N)=O)[C@@H](C)O [Compound AF] | 36 h | 33 h
CC[C@H](C)[C@H](NC(=O)[C@H](Cc1ccc(O)cc1)NC(=O)[C@H](CCCNC(=N)N)NC(=O)[C@H](CCCNC(=N)N)NC(=O)[C@H](CC(C)C)NC(=O)[C@H](CC(=O)O)NC(=O)[C@H](C)NC(=O)[C@H](C)NC(=O)[C@H](Cc1ccc(O)cc1)NC(=O)[C@H](CCC(N)=O)NC(=O)[C@H](C)NC(=O)[C@H](CCSC)NC(=O)[C@H](CCC(N)=O)NC(=O)[C@H](CCC(=O)O)NC(=O)[C@@H]1CCCN1C(=O)[C@@H](NC(=O)[C@H](C)NC(=O)[C@H](CC(N)=O)NC(=O)[C@H](CC(=O)O)NC(=O)CNC(=O)[C@@H]1CCCN1C(=O)[C@H](Cc1ccc(O)cc1)NC(=O)[C@@H](NC(=O)[C@@H]1CCCN1C(=O)[C@H](CCC(=O)O)NC(=O)[C@@H](N)CC(C)C)C(C)C)[C@@H](C)O)C(=O)N[C@@H](CC(N)=O)C(=O)N[C@@H](CCSC)C(=O)N[C@@H](CC(C)C)C(=O)N[C@H](C(=O)N[C@@H](CCCCNC(=O)COCCOCCNC(=O)COCCOCCNC(=O)CC[C@H](NC(=O)CCCCCCCCCCCCCCCCC(=O)O)C(=O)O)C(=O)N1CCC[C@H]1C(=O)N[C@@H](CCCNC(=N)N)C(=O)N[C@@H](Cc1ccc(O)cc1)C(N)=O)[C@@H](C)O [AI] (H-LEPVYPGDNATPEQMAQYAADLRRYINMLTK([AEEA-AEEA-γGlu-C18 diacid])PRY-NH2; N-terminus and C-terminus assumed) |  | 45 h
CC[C@H](C)[C@H](NC(=O)[C@H](Cc1ccc(O)cc1)NC(=O)[C@H](CCCNC(=N)N)NC(=O)[C@H](CCCNC(=N)N)NC(=O)[C@H](CC(C)C)NC(=O)[C@H](CC(=O)O)NC(=O)[C@H](C)NC(=O)[C@H](C)NC(=O)[C@H](Cc1ccc(O)cc1)NC(=O)[C@H](CCC(N)=O)NC(=O)[C@H](C)NC(=O)[C@H](CCSC)NC(=O)[C@H](CCC(N)=O)NC(=O)[C@H](CCC(=O)O)NC(=O)[C@@H]1CCCN1C(=O)[C@@H](NC(=O)[C@H](C)NC(=O)[C@H](CC(N)=O)NC(=O)[C@H](CCCCNC(=O)COCCOCCNC(=O)COCCOCCNC(=O)CC[C@H](NC(=O)CCCCCCCCCCCCCCCCC(=O)O)C(=O)O)NC(=O)CNC(=O)[C@@H]1CCCN1C(=O)[C@H](Cc1ccc(O)cc1)NC(=O)[C@@H](NC(=O)[C@@H]1CCCN1C(=O)[C@H](CCC(=O)O)NC(=O)[C@@H](N)CC(C)C)C(C)C)[C@@H](C)O)C(=O)N[C@@H](CC(N)=O)C(=O)N[C@@H](CCSC)C(=O)N[C@@H](CC(C)C)C(=O)N[C@H](C(=O)N[C@@H](CCCNC(=N)N)C(=O)N1CCC[C@H]1C(=O)N[C@@H](CCCNC(=N)N)C(=O)N[C@@H](Cc1ccc(O)cc1)C(N)=O)[C@@H](C)O [Compound BF] |  | 17 h
